In ChEMBL document CHEMBL5335827, “Divergent Biosynthesis of Bridged Polycyclic Sesquiterpenoids by a Minimal Fungal Biosynthetic Gene Cluster” (J Nat Prod, 2024):
The source made the active and inactive calls. The calls are words filed in the database; no cut-off is given here.

Assays:
Format in all cases: functional, cell-based
[1] = test system: HepG2; test: Cytotoxicity against human HepG2 cells at 20 uM by CCK8 assay
[2] = test system: LoVo; test: Cytotoxicity against human LoVo cells at 20 uM by CCK8 assay
[3] = test system: RAW264.7; test: Anti-inflammatory activity against mouse RAW264.7 cells assessed as inhibition of LPS-induced NO release by Griess assay

IC50 [3] [µM]	SMILES	Activity [1]	Activity [2]
–	C=C1[C@H]([C@@H]2C[C@H](O)C(=O)O2)[C@H]2[C@@H](C(C)C)CC[C@]1(C)[C@H]2CO	inactive	inactive
–	C=C1CC2[C@@H](C(C)C)CC[C@]1(C)[C@H]2C(O)CO (stereo partly specified)	inactive	inactive
–	C=C1[C@H](CO)C2[C@@H]([C@H](C)CO)CC[C@]1(C)[C@H]2CO	inactive	inactive
–	CC(C)[C@H]1CC[C@]2(C)[C@H]3CO[C@]2(CO)C=C[C@@H]13	inactive	inactive
–	CC(C)[C@H]1CC[C@]2(CO)C(C)[C@@H]3C(O)C(O)[C@H]2C13 (mixture of isomers)	inactive	inactive
–	C=C1C2C3[C@@H](C[C@@H]2O)[C@]1(C)[C@H](O)CCC3(C)C	inactive	inactive
–	C=C1C2C3[C@@H](C[C@@H]2O)[C@]1(C)C(=O)CCC3(C)C	inactive	inactive
–	C=C1C2C3[C@@H](C[C@@H]2O)[C@]1(C)CCC[C@@]3(C)CO	inactive	inactive
–	C=C1C2C(=O)C[C@@H]3C2C(C)(C)CC[C@H](O)[C@]13C	inactive	inactive
–	C=C1C2C3[C@@H](C[C@@H]2O)[C@]1(C)CC[C@H](O)C3(C)C	inactive	inactive
–	CC1(C)CCC[C@]2(C)C(CO)=CC1[C@H]2CCO	inactive	inactive
–	C=C1C2C(=O)C[C@@H]3C2C(C)(C)CCC[C@]13CO	inactive	inactive
–	C=C1[C@@H]2C(O)C(O)[C@H]3[C@@H]2[C@@H](C(C)C)CC[C@@]13CO (stereo partly specified)	inactive	inactive
3.9	CC(=O)/C=C/[C@H]1[C@H]2C(C=O)=C(C)[C@]1(C)CC[C@@H]2C(C)C	inactive	inactive
–	C=C1[C@@H]2OC[C@H]3[C@@H]([C@H]2O)[C@@H](C(C)C)CC[C@@]13C	inactive	inactive
